Assay results published in PubChem BioAssay (NCI).
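How tested: cells in 96-well plates exposed to compound for 48 hours at five concentrations. TGI: total growth inhibition.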

Experiments:
Experiment in all cases: NCI-60 cell line screen, 48 h
SF-268 CNS = test system: SF-268 CNS
OVCAR-4 ovarian = test system: OVCAR-4 ovarian
SR leukemia = test system: SR leukemia
NCI-H226 lung = test system: NCI-H226 lung
MDA-MB-435 = test system: MDA-MB-435
BT-549 breast = test system: BT-549 breast
LOX IMVI melanoma = test system: LOX IMVI melanoma
SNB-19 CNS = test system: SNB-19 CNS
HT29 colon = test system: HT29 colon
CCRF-CEM leukemia = test system: CCRF-CEM leukemia
ACHN renal = test system: ACHN renal
SK-MEL-28 melanoma = test system: SK-MEL-28 melanoma
MDA-MB-231 breast = test system: MDA-MB-231 breast
COLO 205 colon = test system: COLO 205 colon
TK-10 renal = test system: TK-10 renal
HL-60(TB) leukemia = test system: HL-60(TB) leukemia
HOP-92 NSCLC = test system: HOP-92 NSCLC
A549 NSCLC = test system: A549 NSCLC
UACC-257 melanoma = test system: UACC-257 melanoma
RXF 393 renal = test system: RXF 393 renal
SF-295 CNS = test system: SF-295 CNS
DU-145 prostate = test system: DU-145 prostate
HCT-15 colon = test system: HCT-15 colon
CAKI-1 renal = test system: CAKI-1 renal
IGROV1 ovarian = test system: IGROV1 ovarian
KM12 colon = test system: KM12 colon
HCT-116 colon = test system: HCT-116 colon
HCC-2998 colon = test system: HCC-2998 colon
RPMI-8226 leukemia = test system: RPMI-8226 leukemia
SN12C renal = test system: SN12C renal
UO-31 renal = test system: UO-31 renal
MCF7 breast = test system: MCF7 breast
K-562 leukemia = test system: K-562 leukemia
SK-MEL-5 melanoma = test system: SK-MEL-5 melanoma
SF-539 CNS = test system: SF-539 CNS
SK-MEL-2 melanoma = test system: SK-MEL-2 melanoma
UACC-62 melanoma = test system: UACC-62 melanoma
OVCAR-5 ovarian = test system: OVCAR-5 ovarian
U251 CNS = test system: U251 CNS
SW-620 colon = test system: SW-620 colon
SK-OV-3 ovarian = test system: SK-OV-3 ovarian
M14 melanoma = test system: M14 melanoma
EKVX NSCLC = test system: EKVX NSCLC
MOLT-4 leukemia = test system: MOLT-4 leukemia
SNB-75 CNS = test system: SNB-75 CNS
786-0 renal = test system: 786-0 renal
NCI-H460 lung = test system: NCI-H460 lung
HS 578T breast = test system: HS 578T breast
PC-3 prostate = test system: PC-3 prostate
HOP-62 NSCLC = test system: HOP-62 NSCLC
NCI/ADR-RES ovarian = test system: NCI/ADR-RES ovarian
MALME-3M melanoma = test system: MALME-3M melanoma
NCI-H23 lung = test system: NCI-H23 lung
OVCAR-8 ovarian = test system: OVCAR-8 ovarian
A498 renal = test system: A498 renal
NCI-H522 lung = test system: NCI-H522 lung
T-47D breast = test system: T-47D breast

COc1ccc2oc(=O)c(-c3csc(C)n3)cc2c1
TGI (SF-268 CNS): 50.3 µM | TGI (OVCAR-4 ovarian): > 100 µM | TGI (SR leukemia): > 100 µM | TGI (NCI-H226 lung): 89.1 µM | TGI (MDA-MB-435): > 100 µM | TGI (BT-549 breast): 29.2 µM | TGI (LOX IMVI melanoma): > 100 µM | TGI (SNB-19 CNS): > 100 µM | TGI (HT29 colon): > 100 µM | TGI (CCRF-CEM leukemia): > 100 µM | TGI (ACHN renal): > 100 µM | TGI (SK-MEL-28 melanoma): > 100 µM | TGI (MDA-MB-231 breast): 68 µM | TGI (COLO 205 colon): > 100 µM | TGI (TK-10 renal): 64.7 µM | TGI (HL-60(TB) leukemia): > 100 µM | TGI (HOP-92 NSCLC): 41.2 µM | TGI (A549 NSCLC): > 100 µM | TGI (UACC-257 melanoma): > 100 µM | TGI (RXF 393 renal): > 100 µM | TGI (SF-295 CNS): 40 µM | TGI (DU-145 prostate): > 100 µM | TGI (HCT-15 colon): > 100 µM | TGI (CAKI-1 renal): > 100 µM | TGI (IGROV1 ovarian): > 100 µM | TGI (KM12 colon): > 100 µM | TGI (HCT-116 colon): > 100 µM | TGI (HCC-2998 colon): > 100 µM | TGI (RPMI-8226 leukemia): > 100 µM | TGI (SN12C renal): > 100 µM | TGI (UO-31 renal): > 100 µM | TGI (MCF7 breast): > 100 µM | TGI (K-562 leukemia): > 100 µM | TGI (SK-MEL-5 melanoma): > 100 µM | TGI (SF-539 CNS): 57 µM | TGI (SK-MEL-2 melanoma): > 100 µM | TGI (UACC-62 melanoma): 73.1 µM | TGI (OVCAR-5 ovarian): > 100 µM | TGI (U251 CNS): 60.9 µM | TGI (SW-620 colon): > 100 µM | TGI (SK-OV-3 ovarian): 87.3 µM | TGI (M14 melanoma): > 100 µM | TGI (EKVX NSCLC): > 100 µM | TGI (MOLT-4 leukemia): > 100 µM | TGI (SNB-75 CNS): 55.6 µM | TGI (786-0 renal): > 100 µM | TGI (NCI-H460 lung): > 100 µM | TGI (HS 578T breast): 79.3 µM | TGI (PC-3 prostate): > 100 µM | TGI (HOP-62 NSCLC): 84 µM

O=C(NNc1nc(-c2ccccc2)cs1)C(F)(F)F
TGI (SF-268 CNS): > 100 µM | TGI (OVCAR-4 ovarian): > 100 µM | TGI (SR leukemia): > 100 µM | TGI (NCI-H226 lung): > 100 µM | TGI (NCI/ADR-RES ovarian): > 100 µM | TGI (MALME-3M melanoma): > 100 µM | TGI (MDA-MB-435): > 100 µM | TGI (LOX IMVI melanoma): > 100 µM | TGI (SNB-19 CNS): > 100 µM | TGI (HT29 colon): > 100 µM | TGI (CCRF-CEM leukemia): > 100 µM | TGI (ACHN renal): > 100 µM | TGI (SK-MEL-28 melanoma): 88.8 µM | TGI (NCI-H23 lung): > 100 µM | TGI (MDA-MB-231 breast): > 100 µM | TGI (COLO 205 colon): > 100 µM | TGI (HL-60(TB) leukemia): > 100 µM | TGI (A549 NSCLC): > 100 µM | TGI (UACC-257 melanoma): > 100 µM | TGI (OVCAR-8 ovarian): > 100 µM | TGI (RXF 393 renal): > 100 µM | TGI (A498 renal): 88.2 µM | TGI (SF-295 CNS): > 100 µM | TGI (DU-145 prostate): > 100 µM | TGI (HCT-15 colon): > 100 µM | TGI (CAKI-1 renal): > 100 µM | TGI (IGROV1 ovarian): > 100 µM | TGI (KM12 colon): > 100 µM | TGI (HCT-116 colon): > 100 µM | TGI (NCI-H522 lung): > 100 µM | TGI (HCC-2998 colon): > 100 µM | TGI (RPMI-8226 leukemia): 47 µM | TGI (SN12C renal): > 100 µM | TGI (UO-31 renal): 31.6 µM | TGI (MCF7 breast): > 100 µM | TGI (K-562 leukemia): 93.5 µM | TGI (SK-MEL-5 melanoma): > 100 µM | TGI (SK-MEL-2 melanoma): > 100 µM | TGI (UACC-62 melanoma): > 100 µM | TGI (OVCAR-5 ovarian): > 100 µM | TGI (U251 CNS): 98.7 µM | TGI (T-47D breast): > 100 µM | TGI (SW-620 colon): > 100 µM | TGI (SK-OV-3 ovarian): > 100 µM | TGI (M14 melanoma): > 100 µM | TGI (EKVX NSCLC): > 100 µM | TGI (MOLT-4 leukemia): > 100 µM | TGI (SNB-75 CNS): 91 µM | TGI (786-0 renal): > 100 µM | TGI (NCI-H460 lung): > 100 µM | TGI (HS 578T breast): 52.2 µM | TGI (PC-3 prostate): > 100 µM | TGI (HOP-62 NSCLC): > 100 µM
